Reference: ChEMBL document CHEMBL2390846, “Small-molecule pyrimidine inhibitors of the cdc2-like (Clk) and dual specificity tyrosine phosphorylation-regulated (Dyrk) kinases: development of chemical probe ML315” (Bioorg Med Chem Lett, 2013)

Legend:
[1] = molecular target: Dual specificity protein kinase CLK2 (Homo sapiens, UniProt P49760)
[2] = molecular target: Dual specificity tyrosine-phosphorylation-regulated kinase 1B (Homo sapiens, UniProt Q9Y463)
[3] = molecular target: Dual specificity protein kinase CLK1 (Homo sapiens, UniProt P49759)
Chain of Dual specificity protein kinase CLK1 (P49759 whole entry): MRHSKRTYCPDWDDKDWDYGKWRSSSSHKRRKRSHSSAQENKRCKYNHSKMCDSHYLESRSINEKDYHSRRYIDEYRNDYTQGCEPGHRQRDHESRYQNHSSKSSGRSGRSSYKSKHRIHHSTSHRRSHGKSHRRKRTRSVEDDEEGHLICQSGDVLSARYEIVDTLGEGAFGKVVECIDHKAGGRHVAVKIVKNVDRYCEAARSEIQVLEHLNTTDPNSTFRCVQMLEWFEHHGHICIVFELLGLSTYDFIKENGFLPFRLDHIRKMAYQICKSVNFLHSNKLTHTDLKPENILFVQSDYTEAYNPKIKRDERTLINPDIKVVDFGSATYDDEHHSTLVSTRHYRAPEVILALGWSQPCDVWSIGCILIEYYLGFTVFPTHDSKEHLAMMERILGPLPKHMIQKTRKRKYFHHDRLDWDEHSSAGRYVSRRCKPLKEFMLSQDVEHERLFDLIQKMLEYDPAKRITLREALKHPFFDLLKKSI

[4] = molecular target: T1, Dual specificity tyrosine-phosphorylation-regulated kinase 1A (Homo sapiens, UniProt Q13627); experiment: Inhibition of DYRK1A (unknown origin) by bioluminescence assay
[5] = molecular target: T1, Dual specificity tyrosine-phosphorylation-regulated kinase 1A
[6] = molecular target: T2, Dual specificity protein kinase CLK4 (Homo sapiens, UniProt Q9HAZ1); experiment: Inhibition of CLK4 (unknown origin) by bioluminescence assay
T2 sequence (Q9HAZ1 whole entry): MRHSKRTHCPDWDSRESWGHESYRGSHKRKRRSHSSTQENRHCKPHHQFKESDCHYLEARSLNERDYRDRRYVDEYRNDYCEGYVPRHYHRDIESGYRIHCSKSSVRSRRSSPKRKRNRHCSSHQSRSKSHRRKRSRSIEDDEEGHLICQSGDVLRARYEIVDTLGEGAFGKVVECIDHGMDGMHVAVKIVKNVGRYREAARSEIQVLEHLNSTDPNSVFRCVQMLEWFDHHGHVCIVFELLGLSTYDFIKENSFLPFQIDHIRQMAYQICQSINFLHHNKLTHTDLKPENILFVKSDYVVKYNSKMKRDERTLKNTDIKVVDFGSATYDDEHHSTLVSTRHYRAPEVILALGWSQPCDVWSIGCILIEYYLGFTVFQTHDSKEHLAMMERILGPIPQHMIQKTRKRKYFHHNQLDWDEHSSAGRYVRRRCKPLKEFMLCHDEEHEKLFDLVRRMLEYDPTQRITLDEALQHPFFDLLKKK

[7] = molecular target: T2, Dual specificity protein kinase CLK4

Chain of Dual specificity protein kinase CLK2 (P49760 whole entry): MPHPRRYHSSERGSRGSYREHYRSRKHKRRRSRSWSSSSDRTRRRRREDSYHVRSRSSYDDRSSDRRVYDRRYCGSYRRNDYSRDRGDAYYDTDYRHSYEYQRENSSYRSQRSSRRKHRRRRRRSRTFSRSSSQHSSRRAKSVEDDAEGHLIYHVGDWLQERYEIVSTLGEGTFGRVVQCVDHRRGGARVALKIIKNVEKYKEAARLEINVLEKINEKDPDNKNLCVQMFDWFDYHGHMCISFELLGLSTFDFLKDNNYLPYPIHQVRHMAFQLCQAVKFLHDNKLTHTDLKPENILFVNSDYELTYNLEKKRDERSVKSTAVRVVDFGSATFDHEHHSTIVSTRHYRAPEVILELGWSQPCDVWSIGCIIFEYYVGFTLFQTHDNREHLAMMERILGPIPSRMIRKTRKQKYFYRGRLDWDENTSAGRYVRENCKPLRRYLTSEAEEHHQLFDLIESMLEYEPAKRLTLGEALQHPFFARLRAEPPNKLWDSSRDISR
Chain of Dual specificity tyrosine-phosphorylation-regulated kinase 1B (Q9Y463 whole entry): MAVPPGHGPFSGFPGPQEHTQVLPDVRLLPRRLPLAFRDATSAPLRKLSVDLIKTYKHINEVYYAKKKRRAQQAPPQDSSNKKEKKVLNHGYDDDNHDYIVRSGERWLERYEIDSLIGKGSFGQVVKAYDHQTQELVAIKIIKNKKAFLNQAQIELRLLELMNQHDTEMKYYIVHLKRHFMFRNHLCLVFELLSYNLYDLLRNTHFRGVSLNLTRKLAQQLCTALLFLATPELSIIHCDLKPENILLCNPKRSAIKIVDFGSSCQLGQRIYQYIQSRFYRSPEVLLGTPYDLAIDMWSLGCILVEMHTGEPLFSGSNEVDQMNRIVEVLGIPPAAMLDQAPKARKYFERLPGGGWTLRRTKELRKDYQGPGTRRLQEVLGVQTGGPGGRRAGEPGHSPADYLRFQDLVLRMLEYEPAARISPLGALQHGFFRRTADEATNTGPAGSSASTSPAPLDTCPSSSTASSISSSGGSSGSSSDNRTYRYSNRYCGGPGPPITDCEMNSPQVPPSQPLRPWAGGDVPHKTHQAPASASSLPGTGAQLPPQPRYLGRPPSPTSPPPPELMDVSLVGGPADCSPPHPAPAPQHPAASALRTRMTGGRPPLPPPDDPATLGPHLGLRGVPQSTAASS

| Compound | IC50 ([6]; read-out: IC50) | IC50 [4] | further results |
| --- | --- | --- | --- |
| c1cncc(CNc2ncncc2-c2ccc3c(c2)OCO3)c1 | – | – | IC50 [1]: > 10 µM; IC50 [2]: > 10 µM; IC50 [3]: 4.8 µM; IC50 ([4]; read-out: IC50): 26 µM; IC50 [5]: > 10 µM |
| COc1ccc(-c2ccnc(NCc3ccc(Cl)c(Cl)c3)n2)cc1OC | 26 µM | – | IC50 [3]: > 10 µM; IC50 ([4]; read-out: IC50): 26 µM; IC50 [7]: > 10 µM |
| Cc1ccc(CNc2ccnc(-c3ccc(N(C)C)cc3)n2)cc1 | – | Not Active | IC50 [6]: Not Active |
| Cc1ccc(CNc2ccnc(-c3cccc(C#N)c3)n2)cc1 | 23.2 µM | – | – |
| Clc1cncc(CNc2ccnc(-c3ccc4c(c3)OCO4)n2)c1 | 18.4 µM | – | – |
| COc1cccc(-c2ccnc(NCc3ccc(Cl)c(Cl)c3)n2)c1 | 3.68 µM | – | IC50 [1]: > 10 µM; IC50 [2]: > 10 µM; IC50 [3]: 5.46 µM; IC50 ([4]; read-out: IC50): 5.82 µM; IC50 [7]: 3.86 µM; IC50 [5]: 4.65 µM |
| Clc1ccc(Nc2nccc(-c3ccc4c(c3)OCO4)n2)cc1 | 0.37 µM | – | IC50 [1]: > 10 µM; IC50 [2]: 0.884 µM; IC50 [3]: 1.26 µM; IC50 ([4]; read-out: IC50): 0.52 µM; IC50 [7]: 5.45 µM; IC50 [5]: 0.273 µM |
| COc1ccc(-c2ccnc(NCc3ccc(Cl)c(Cl)c3)n2)cc1 | 0.21 µM | – | IC50 [1]: 0.409 µM; IC50 [2]: 0.411 µM; IC50 [3]: 0.076 µM; IC50 ([4]; read-out: IC50): 1.16 µM; IC50 [7]: 0.092 µM; IC50 [5]: 0.203 µM |
| N#Cc1cccc(-c2nccc(NCc3ccccc3)n2)c1 | 14.1 µM | – | – |
| COc1ccc(CNc2ccnc(-c3cccc(OC)c3)n2)cc1 | 23.2 µM | – | – |
| Brc1cc(Br)cc(CNc2ccnc(-c3ccc4c(c3)OCO4)n2)c1 | 9.2 µM | Not Active | – |
| c1cnc(-c2ccc3c(c2)OCO3)nc1 | – | Not Active | IC50 [6]: Not Active |
| Fc1cc(CNc2ccnc(-c3ccc4c(c3)OCO4)n2)ccc1Cl | 13 µM | – | – |
| Clc1cc(Cl)cc(CNc2cc(-c3ccc4c(c3)OCO4)ncn2)c1 | 1.64 µM | – | – |
| Fc1cc(F)cc(CNc2ccnc(-c3ccc4c(c3)OCO4)n2)c1 | 5.2 µM | – | – |
| Fc1ccc(CNc2ccnc(-c3ccc4c(c3)OCO4)n2)cc1F | 10.4 µM | – | – |
| Clc1cc(Cl)cc(CNc2ccnc(-c3ccc4c(c3)OCO4)n2)c1 | 4.1 µM | Not Active | – |
| c1cncc(CNc2cc(-c3ccc4c(c3)OCO4)ncn2)c1 | 6.54 µM | – | IC50 ([4]; read-out: IC50): 16.4 µM |
| Clc1ccc(CNc2ccnc(-c3cccnc3)n2)cc1 | 16.4 µM | – | – |
| Clc1ccc(CNc2ccnc(-c3ccc4c(c3)OCO4)n2)cc1Cl | 26 µM | Not Active | – |
| COc1cccc(-c2nccc(NCc3ccccc3)n2)c1 | 15.8 µM | – | – |
| Fc1cncc(CNc2ccnc(-c3ccc4c(c3)OCO4)n2)c1 | 8.2 µM | – | – |
| Clc1ccc(CNc2ccnc(-c3ccc4c(c3)OCO4)n2)cn1 | 29.2 µM | – | IC50 ([4]; read-out: IC50): 29.2 µM |

| Compound | IC50 ([6]; read-out: IC50) | IC50 [4] | further results |
| --- | --- | --- | --- |
| c1cncc(CNc2nccc(-c3ccc4cn[nH]c4c3)n2)c1 | 0.04 µM | – | IC50 ([4]; read-out: IC50): 0.21 µM |
| Clc1ccc(CNc2nccc(-c3ccc4c(c3)OCO4)n2)cc1 | 0.05 µM | – | – |
| COc1ccc(-c2nccc(NCc3ccc(Cl)c(Cl)c3)n2)cc1 | 14.6 µM | Not Active | – |
| CN(C)c1ccc(-c2ncccn2)cc1 | – | Not Active | IC50 [6]: Not Active |
| Cc1noc(C)c1-c1nccc(NCc2ccc(Cl)c(Cl)c2)n1 | – | Not Active | IC50 [6]: Not Active |
| c1ccc(CNc2ccnc(-c3ccc4c(c3)OCO4)n2)nc1 | 9.2 µM | – | – |
| c1cncc(CNc2ccnc(-c3ccc4c(c3)OCO4)n2)c1 | 0.063 µM | – | – |
| COc1ccc(-c2nccc(NCc3ccc(C)cc3)n2)cc1 | – | Not Active | IC50 [6]: Not Active |
| c1ccc(CNc2ccnc(-c3cccnc3)n2)cc1 | 31.6 µM | – | – |
| Brc1cncc(CNc2ccnc(-c3ccc4c(c3)OCO4)n2)c1 | 8.2 µM | – | – |
| Cc1ccc(CNc2ccnc(-c3cccnc3)n2)cc1 | 26 µM | Not Active | – |
| COc1cccc(-c2ncccn2)c1 | 16.4 µM | – | – |
| Cc1ccc(CNc2ccnc(-c3ccc4c(c3)OCO4)n2)cc1 | 23.2 µM | Not Active | – |
| COc1ccc(-c2nccc(NCc3ccc(Cl)cc3)n2)cc1 | 13 µM | Not Active | – |
| CN(C)c1ccc(-c2nccc(NCc3ccc(Cl)c(Cl)c3)n2)cc1 | – | Not Active | IC50 [6]: Not Active |
| COc1cccc(-c2nccc(NCc3ccc(C)cc3)n2)c1 | 41.2 µM | – | – |
| Clc1ccc(CNc2ccnc(-c3cccnc3)n2)cc1Cl | 13 µM | – | – |
| c1ccc(CNc2ccnc(-c3ccc4c(c3)OCO4)n2)cc1 | 23.2 µM | – | IC50 ([4]; read-out: IC50): 26 µM |
| c1cncc(-c2cc(-n3ccnc3)ncn2)c1 | 0.79 µM | – | – |
| Cc1noc(C)c1-c1ncccn1 | – | Not Active | IC50 [6]: Not Active |
| COc1ccc(CNc2ccnc(-c3ccc(N(C)C)cc3)n2)cc1 | – | Not Active | IC50 [6]: Not Active |
| c1ccc2ncc(CNc3ccnc(-c4ccc5c(c4)OCO5)n3)cc2c1 | 41.2 µM | – | – |
| COc1ccc(CNc2ccnc(-c3ccc(OC)cc3)n2)cc1 | 36.8 µM | Not Active | – |

| Compound | IC50 ([6]; read-out: IC50) | IC50 [4] | further results |
| --- | --- | --- | --- |
| COc1ccc(CNc2ccnc(-c3c(C)noc3C)n2)cc1 | – | Not Active | IC50 [6]: Not Active |
| Fc1ccc(CNc2ccnc(-c3ccc4c(c3)OCO4)n2)cc1Br | 13 µM | – | – |
| c1cc(CNc2ccnc(-c3ccc4c(c3)OCO4)n2)ccn1 | 23.2 µM | – | – |
| N#Cc1cccc(-c2ncccn2)c1 | 26 µM | Not Active | – |
| Clc1ccc(CNc2ccnc(-c3ccc4[nH]ncc4c3)n2)cc1Cl | – | – | IC50 [2]: 0.514 µM; IC50 [3]: 1.78 µM; IC50 ([4]; read-out: IC50): 4.63 µM; IC50 [5]: 2.35 µM |
| COc1ccc(CNc2ccnc(-c3cccc(C#N)c3)n2)cc1 | 9.2 µM | – | – |
| Brc1ccc(CNc2ccnc(-c3ccc4c(c3)OCO4)n2)cc1Br | 9.2 µM | Not Active | – |
| CN(C)c1ccc(-c2nccc(NCc3ccccc3)n2)cc1 | – | Not Active | IC50 [6]: Not Active |
| COc1ccc(CNc2ccnc(-c3ccc4c(c3)OCO4)n2)cc1 | – | – | IC50 [6]: Not Active |
| COc1ccccc1CNc1ncncc1-c1ccc2c(c1)OCO2 | 2.2 µM | – | – |
| CN(C)c1ccc(-c2nccc(NCc3ccc(Cl)cc3)n2)cc1 | – | Not Active | IC50 [6]: Not Active |
| Cc1ccc(CNc2ccnc(-c3ccc4c(c3)OCO4)n2)cn1 | 32.8 µM | – | – |
| Clc1ccc(CNc2cc(-c3ccc4c(c3)OCO4)ncn2)cc1Cl | 4.63 µM | – | – |
| COc1cccc(-c2nccc(NCc3ccc(Cl)cc3)n2)c1 | 13 µM | – | – |
| Cc1noc(C)c1-c1nccc(NCc2ccc(Cl)cc2)n1 | – | Not Active | IC50 [6]: Not Active |
| COc1ccc(-c2ncccn2)cc1 | 29.2 µM | Not Active | – |
| Clc1ccc(CNc2cc(-c3ccc4c(c3)OCO4)ncn2)cc1 | 2.32 µM | – | – |
| Clc1ccc(CNc2ccnc(-c3ccc4c(c3)OCO4)n2)cc1 | 41.2 µM | Not Active | – |
| Cc1ccc(CNc2ccnc(-c3c(C)noc3C)n2)cc1 | – | Not Active | IC50 [6]: Not Active |
| COc1ccc(-c2nccc(NCc3ccccc3)n2)cc1 | 29.2 µM | Not Active | – |
| COc1cccc(-c2nccc(NCc3ccc(Cl)c(Cl)c3)n2)c1 | 14.6 µM | Not Active | – |
| Fc1cc(CNc2ccnc(-c3ccc4c(c3)OCO4)n2)cc(F)c1F | 8.2 µM | – | – |
| Fc1ccc(CNc2ccnc(-c3ccc4c(c3)OCO4)n2)cc1Cl | 5.2 µM | – | – |
